Values after ≈ are worked out from the molar mass of the structure shown. Active and inactive are the calls of the source. No cut-off for these calls is given here.
What was measured:
[1] = system: Saccharomyces cerevisiae; assay: Antifungal activity against Saccharomyces cerevisiae ATCC 7754 after 2 days by broth dilution method; assay type: functional; conditions: ATCC 7754, 48 h
[2] = system: Malassezia furfur; assay: Antifungal activity against Pityrosporum ovale ATCC 14521 after 3 days by broth dilution method; assay type: functional; conditions: ATCC 14521, 72 h
[3] = system: Candida albicans; assay: Antifungal activity against Candida albicans ATCC 18804 after 2 days by broth dilution method; assay type: functional; conditions: ATCC 18804, 48 h
[4] = system: Klebsiella aerogenes; assay: Antimicrobial activity against Enterobacter aerogenes ATCC 13048 up to 800 ug/mL after 2 days by broth dilution method; assay type: functional, organism-based
[5] = system: Pseudomonas aeruginosa; assay: Antimicrobial activity against Pseudomonas aeruginosa ATCC 10145 up to 800 ug/mL after 2 days by broth dilution method; assay type: functional, organism-based
[6] = system: Staphylococcus aureus; assay: Antimicrobial activity against Staphylococcus aureus ATCC 12598 up to 800 ug/mL after 2 days by broth dilution method; assay type: functional, organism-based
[7] = system: Penicillium chrysogenum; assay: Antimicrobial activity against Penicillium chrysogenum ATCC 10106 up to 800 ug/mL after 5 days by broth dilution method; assay type: functional, organism-based
[8] = system: Streptococcus mutans; assay: Antimicrobial activity against Streptococcus mutans ATCC 25175 up to 800 ug/mL after 2 days by broth dilution method; assay type: functional, organism-based
[9] = system: Saccharomyces cerevisiae; assay: Antifungal activity against Saccharomyces cerevisiae ATCC 7754 at 800 ug/mL after 2 days by broth dilution method; assay type: functional; conditions: ATCC 7754, 48 h
[10] = system: Escherichia coli; assay: Antimicrobial activity against Escherichia coli ATCC 9637 up to 800 ug/mL after 2 days by broth dilution method; assay type: functional, organism-based
[11] = system: Corynebacterium ammoniagenes; assay: Antimicrobial activity against Brevibacterium ammoniagenes ATCC 6872 up to 800 ug/mL after 2 days by broth dilution method; assay type: functional, organism-based
[12] = system: Cutibacterium acnes; assay: Antimicrobial activity against Propionibacterium acnes ATCC 11827 up to 800 ug/mL after 2 days by broth dilution method; assay type: functional, organism-based
[13] = system: Malassezia furfur; assay: Antifungal activity against Pityrosporum ovale ATCC 14521 at 800 ug/mL after 3 days by broth dilution method; assay type: functional, organism-based
[14] = system: Saccharomyces cerevisiae; assay: Antifungal activity against Saccharomyces cerevisiae ATCC 7754 at 1600 ug/mL after 2 days by broth dilution method; assay type: functional, organism-based
[15] = system: Candida albicans; assay: Antifungal activity against Candida albicans ATCC 18804 at 800 ug/mL after 2 days by broth dilution method; assay type: functional, organism-based
[16] = system: Bacillus subtilis; assay: Antimicrobial activity against Bacillus subtilis ATCC 9372 up to 800 ug/mL after 2 days by broth dilution method; assay type: functional; conditions: ATCC 9372, 48 h

SMILES	MIC [1] [µg/mL]	MIC [2] [µg/mL]	MIC [3] [µg/mL]	other results
C/C=C/c1ccccc1	400 (≈ 3380 µM)	> 800	400 (≈ 3380 µM)	
CC(C)[C@H]1OC(=O)C=C2C1=C[C@H]1OC(=O)[C@@]3(C)C[C@H](O)C[C@@]2(C)[C@@H]13	800 (≈ 2410 µM)			Activity [4]: inactive; Activity [5]: inactive; Activity [6]: inactive; Activity [7]: inactive; Activity [8]: inactive; MIC [9]: 800 µg/mL (≈ 2410 µM); Activity [10]: inactive; Activity [11]: inactive; Activity [12]: inactive
COc1ccc(/C=C/C(=O)O)cc1 [4-METHOXYCINNAMIC ACID]	100 (≈ 561 µM)	> 800	200 (≈ 1120 µM)	
C=CCc1ccccc1 [ALLYLBENZENE]	400 (≈ 3380 µM)	> 800	400 (≈ 3380 µM)	
C/C=C/c1ccc(OC)cc1 [ANETHOLE]	200 (≈ 1350 µM)	200 (≈ 1350 µM)	200 (≈ 1350 µM)	
COc1ccc(O)c(C(C)(C)C)c1.COc1ccc(O)cc1C(C)(C)C [BUTYLATED HYDROXYANISOLE]	200	200		
C=CCc1ccc(O)c(OC)c1 [EUGENOL]	800 (≈ 4870 µM)	200 (≈ 1220 µM)	800 (≈ 4870 µM)	
C/C=C\c1ccc(O)c(OC)c1 [ISOEUGENOL]	400 (≈ 2440 µM)	200 (≈ 1220 µM)	400 (≈ 2440 µM)	
C/C=C/c1ccc2c(c1)OCO2 [ISOSAFROLE]	200 (≈ 1230 µM)	100 (≈ 617 µM)	100 (≈ 617 µM)	
C=CCc1ccc(OC)c(OC)c1 [METHYLEUGENOL]	800 (≈ 4490 µM)	200 (≈ 1120 µM)	800 (≈ 4490 µM)	
C/C=C/c1ccc(OC)c(OC)c1 [METHYLISOEUGENOL]	400 (≈ 2240 µM)	200 (≈ 1120 µM)	400 (≈ 2240 µM)	
CC(C)c1oc(=O)cc2c1[C@@H](O)[C@H]1OC(=O)[C@@]3(C)[C@@H](O)[C@H]4O[C@H]4[C@@]2(C)[C@@H]13 [NAGILACTONE C]	> 1600	> 1600		Activity [13]: inactive; Activity [4]: inactive; Activity [14]: inactive; Activity [5]: inactive; Activity [6]: inactive; Activity [15]: inactive; Activity [7]: inactive; Activity [8]: inactive; Activity [10]: inactive; Activity [11]: inactive; Activity [12]: inactive
CC(C)[C@H]1OC(=O)C=C2C13O[C@@H]3[C@H]1OC(=O)[C@@]3(C)[C@@H](O)CC[C@@]2(C)[C@@H]13 (some centres not stated) [NAGILACTONE E]	100 (≈ 287 µM)	50 (≈ 144 µM)	800 (≈ 2300 µM)	Activity [4]: inactive; Activity [5]: inactive; Activity [6]: inactive; Activity [7]: inactive; Activity [8]: inactive; Activity [10]: inactive; MIC [16]: 50 µg/mL (≈ 144 µM); Activity [11]: inactive; Activity [12]: inactive
O=C(O)c1ccc(O)cc1 [PARABEN]	200 (≈ 1450 µM)	100 (≈ 724 µM)		
C=CCc1ccc2c(c1)OCO2 [SAFROLE]	200 (≈ 1230 µM)	200 (≈ 1230 µM)	200 (≈ 1230 µM)	
C/C=C/c1cc(OC)c(OC)cc1OC [TRANS-ASARONE]	800 (≈ 3840 µM)	200 (≈ 960 µM)	800 (≈ 3840 µM)	

Source: ChEMBL document CHEMBL1147339, “Combination effects of antifungal nagilactones against Candida albicans and two other fungi with phenylpropanoids” (1993)
